From patent US20200147217A1, “FUCOIDAN-BASED THERAGNOSTIC COMPOSITION” (National Cancer Center, priority 2018, published 2020) come the findings set out here.

Data set [1] deals with HT1080 human fibrosarcoma-transplanted animal model. The data set is described as follows: Tumor-targeting fluorescence imaging after intravenous injection. It counts as in vivo, mice. The method, then: In Example 11, in order to analyze a tumor-targeting effect of a photosensitizer-fucoidan conjugate, an experiment was performed, in which the conjugate is intravenously administered to an experimental animal and a fluorescence image is taken.
Phosphate buffer (negative control), a free photosensitizer (free Ce6), or a photosensitizer-fucoidan conjugate (Ce6-Fucoidan) was injected intravenously, respectively, into an HT1080 human fibrosarcoma-transplanted animal model, and fluorescence images were taken with an IVIS imaging machine at 5 minutes and 24 hours after the injection (λex 660/20 nm, λem 710/40 nm). […] In FIG. 19B, fluorescence image signal values of the tumor tissues are quantified to compare the amount of photosensitizer accumulated in the tumor tissues. […] FIG. 19C illustrates results obtained by allowing mice to be euthanized, obtaining spleen, kidney, liver, and lung tissues, and identifying ex vivo fluorescence images thereof. […] FIG. 19D illustrates results obtained by freezing the obtained tumor tissues to prepare frozen sections, and then identifying, with a confocal microscope, a degree of penetration of the photosensitizer into each tumor tissue.

In data set [2] the test system is HT1080 subcutaneous xenograft tumor. The data set is described as follows: Tumor growth inhibition in HT1080 xenograft model. It counts as in vivo, Nude mice (Balb/c nude). To be noted: 5 mg Ce6 equivalent/kg i.v., +PDT 670 nm, 20 J/cm^2. The method, then: A photodynamic therapeutic effect caused by a photosensitizer-fucoidan conjugate was evaluated in a tumor-transplanted animal model. A tumor model into which HT1080 cancer cells are subcutaneously xenografted was injected intravenously with a free photosensitizer (free Ce6) or Ce6-Fucoidan, and light irradiation (PDT) was performed on the tumor site using a 670 nm laser. To evaluate an antitumor effect, the tumor size was measured daily for 10 days, and differences between the respective groups were analyzed. For the control experimental animals, phosphate buffer containing no photosensitizer was injected intravenously.
HT1080, a human fibrosarcoma cell line, was obtained from the American Type Culture Collection (ATCC, USA). The HT1080 cells were cultured, under conditions of 37° C., 5% carbon dioxide, and standard humidity, in Eagle's Minimum Essential Media (MEM) medium supplemented with 10% fetal bovine serum (FBS) and 1% penicillin/streptomycin. Nude mice (Balb/c nude) were subcutaneously injected with HT1080 cancer cells as much as 5×10^6 cells/100 μL, and after 5 to 7 days, it was checked whether subcutaneous tumors are produced. […] The tumor size was measured until Day 10 to prepare a tumor growth graph, and the tumor size was compared between the respective groups. […]

Consider chlorin e6 [free Ce6], for which, in data set [1] (confocal microscope, 24 hours after administration), the “fluorescence signal caused by the photosensitizer in tumor frozen sections” value is reported as “hardly observed”. In data set [1] (intravenous, 24 hours after injection, IVIS), the “fluorescence image signal in tumor tissues” value was “no fluorescence image signal even in tumor tissues”. For the same substance, the “retention in the body” value in data set [1] (intravenous, up to 24 hours, fluorescence imaging) was “hardly remains in the body at 24 hours”. Further, the “tumor growth inhibitory effect compared with the control” value in data set [2] is given as “no statistically significant tumor growth inhibitory effect”.
